Measurements: PubChem BioAssay (NCI)
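A five-concentration, 48-hour dose response in 96-well plates underlies each endpoint, interpolated linearly between surrounding concentrations. GI50 is the concentration that inhibits growth by half. TGI is the concentration that stops growth completely.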

What was measured:
Test in all cases: DTP human tumour cell line panel, 48 h
EKVX NSCLC = system: EKVX NSCLC
UO-31 renal = system: UO-31 renal
KM12 colon = system: KM12 colon
M14 melanoma = system: M14 melanoma
MOLT-4 leukemia = system: MOLT-4 leukemia
MALME-3M melanoma = system: MALME-3M melanoma
UACC-62 melanoma = system: UACC-62 melanoma
UACC-257 melanoma = system: UACC-257 melanoma
RXF 393 renal = system: RXF 393 renal
DU-145 prostate = system: DU-145 prostate

Row | SMILES | TGI (EKVX NSCLC) [µM] | TGI (UO-31 renal) [µM] | TGI (KM12 colon) [µM] | TGI (M14 melanoma) [µM] | TGI (MOLT-4 leukemia) [µM] | TGI (MALME-3M melanoma) [µM] | TGI (UACC-62 melanoma) [µM] | TGI (UACC-257 melanoma) [µM] | TGI (RXF 393 renal) [µM] | GI50 (UO-31 renal) [µM] | GI50 (RXF 393 renal) [µM] | GI50 (KM12 colon) [µM] | GI50 (M14 melanoma) [µM] | GI50 (MOLT-4 leukemia) [µM] | GI50 (MALME-3M melanoma) [µM] | GI50 (DU-145 prostate) [µM] | TGI (DU-145 prostate) [µM] | GI50 (UACC-62 melanoma) [µM] | GI50 (UACC-257 melanoma) [µM] | GI50 (EKVX NSCLC) [µM]
1 | O=C(O)[C@@H]1CCCC[C@@H]1C(=O)N(C1CCCCC1)C1CCCCC1 | > 100 | > 100 | > 100 | > 100 | > 100 | > 100 | > 100 | > 100 |  |  |  |  |  |  |  |  |  |  |  | 
2 | CCOC1=C2NC(Cc3ccc(F)cc3)=NC2C(=O)c2ccccc21 (stereo not drawn) | 85.7 | 25.1 | > 100 | 73.4 | 46.7 | 55.8 | 63.3 | 50.8 | 73.5 |  |  |  |  |  |  |  |  |  |  | 
3 | COc1ccc(-c2cc(/C=C/C(=O)c3cc(OC)c(OC)c(OC)c3)[nH]n2)cc1OC |  | 2.59 | 2.27 | 3.69 | 8.86 | 6.19 | 3.88 | 3.8 | 3.16 | 1.27 | 1.53 | 0.78 | 1.8 | 1.81 | 2.32 | 1.83 | 4.12 | 1.79 | 1.79 | 
4 | C/C(=N/O)c1ccc2c(c1)C(=NO)c1cc(/C(C)=N/O)ccc1-2 | 41.7 | 28.3 | 32.9 | 31.2 | 13.2 | 23 | 38.4 | 5.87 | 48.8 |  |  |  |  |  |  |  |  |  |  | 
5 | CC(=O)OCCC(O[Si](c1ccccc1)(c1ccccc1)C(C)(C)C)C(C)(C)O (stereo not drawn) | > 100 | 68.7 | 55 | > 100 | 63 | > 100 | > 100 | > 100 | 36.6 |  |  |  |  |  |  |  |  |  |  | 
6 | CC(=O)[CH-]C(=O)c1ccccc1.CC(=O)[CH-]C(=O)c1ccccc1.[CH2-]CCC.[CH2-]CCC.[Sn+4] | 3.25 | 2.66 | 2.76 | 2.62 | 1.86 | 1.91 | 2.17 | 1.69 | 0.784 | 1.37 | 0.258 | 1.41 | 1.16 | 0.421 | 0.63 |  |  | 0.754 | 0.343 | 1.41
7 | CC12OC(C(=O)C13CCC3)C1C(=O)c3ccccc3C(=O)C12 (stereo not drawn) | > 100 | > 100 | > 100 | > 100 | > 100 | > 100 |  | > 100 |  | > 100 |  | 32.4 | > 100 | 37.6 | 33 |  |  |  | 44 | > 100
8 | O=[N+]([O-])C1C2C=CC(C2)[C@H]1c1ccc(Cl)cc1Cl (stereo partly drawn) |  | 67.2 | > 100 |  | > 100 | > 100 |  | 99 | 74.1 |  |  |  |  |  |  |  |  |  |  | 
9 | NC(=O)c1c[se]c(C2OC(COP(=O)(O)CP(=O)(O)OCC3OC(n4cnc5c(N)ncnc54)C(O)C3O)C(O)C2O)n1 (stereo not drawn) | > 100 | > 100 | > 100 | > 100 | > 100 | > 100 |  | > 100 | > 100 |  |  |  |  |  |  |  |  |  |  | 
10 | COc1ccc(C2NCCc3c2[nH]c2ccccc32)cc1 (stereo not drawn) | > 100 | > 100 | > 100 | > 100 | > 100 | > 100 | > 100 | > 100 | > 100 |  |  |  |  |  |  |  |  |  |  | 
